Assay results from US20240115557A1, “INHIBITORS OF RNA-GUIDED NUCLEASES AND USES THEREOF” (The Brigham and Women's Hospital, Inc., priority 2022, published 2024).

Tests used:
[1] = biological target: T1, SpCas9 (Streptococcus pyogenes serotype M1, UniProt Q99ZW2); assay: Strand displacement assay (SDA) / cumulative activity assay (CAA), SpCas9 primary screen; format: biochemical; conditions: Primary Screen (150 min); for Normalized Z score 1: replicate 1; for Normalized Z score 2: replicate 2
Description: Screening of inhibitors was via a high throughput pipeline, as depicted in FIG. 29. The first screening is via a strand displacement assay (SDA) for detecting nuclease activity (FIG. 27A, 28A). The Cpf1/Cas12 protein/DNA complex has a different structure from Cas9 and requires optimization of the potential fluorophore attachment sites (Yamano, T et al., Cell, 2016). (FIG. 28A). Next screened compounds are evaluated in an eGFP cell assay, and for eGFP dose. Those compounds are further narrowed via a HiBiT assay and finally evaluated in the surveyor assay. SAR evaluations are performed to arrive at lead compounds for further evaluations and variations. General methodology for the assays is as described in at [0253]-[0301] of U.S. Patent Application 62/831,143 filed Apr. 8, 2019, incorporated herein by reference.
The 3′ end of the displacing single-stranded DNA was labeled with a quencher. Following nuclease cleavage of the substrate, the 3′-labeled quenching DNA strand (present in excess) could outcompete the weakly held 3′ strand to anneal to the 5′ strand. The resulting FRET fluorescence quenching provides an optical readout for nuclease activity (FIG. 62A).
Typically, SpCas9: gRNA (1:1.2 ratio) RNP was pre-formed at 1 μM in Cas9 assay buffer (20 mM Tris-HCl, pH=7.5, 100 mM KCl, 5 mM MgCl2) for 5 min at 4° C. before diluting to 10 nM in Cas9 assay buffer (2× final concentration). 25 μL of the Cas9 2× stock was manually dispensed to a black 384-well plate (Corning 3575) using electronic pipette. […] Following this, pre-annealed Alexa-Fluor 647 labeled substrate and quencher were also diluted to 1 nM and 5 nM in Cas9 assay buffer, respectively (2× stock solution). Next, 25 μL of the substrate/quencher solution was added manually to each well of the Cas9-containing 384-well plates using an electronic pipette and was incubated at 37° C. for 2.5 h. Fluorescent signals were read with the microplate reader set to read Alexa-Fluor 647 fluorescence. Assay was performed similarly with SaCas9 and FnCas12a using the respective enzyme, gRNA, substrate, and quencher oligos. […]

[2] = biological target: T1, SpCas9; assay: eGFP disruption assay, SpCas9, U2OS.eGFP.PEST cells; format: cell-based; conditions: for Normalized Z rep1 / Z score Rep1: replicate 1; for SpCas9 eGFP disruption Rep1: replicate 1, raw readout; for Normalized Z rep2 / Z socre Rep2: replicate 2; for SpCas9 eGFP disruption Rep2: replicate 2, raw readout
Outline: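 Rescue of eGFP signal lost through Cas9-induced NHEJ indels serves as the inhibition read-out, after 24 h compound exposure (20 μM for hits, variable for dose-response). Editing was delivered by nucleofection into U2OS.eGFP.PEST cells as SpCas9/gRNA plasmids (300/30 ng) or RNP (10/12 pmol). Toxic and autofluorescent compounds were excluded.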

[3] = Cas9 = lower control, Ctrl = upper control
[4] = normalized, lower control about 0, upper control about 1

T1 sequence (Q99ZW2 whole entry): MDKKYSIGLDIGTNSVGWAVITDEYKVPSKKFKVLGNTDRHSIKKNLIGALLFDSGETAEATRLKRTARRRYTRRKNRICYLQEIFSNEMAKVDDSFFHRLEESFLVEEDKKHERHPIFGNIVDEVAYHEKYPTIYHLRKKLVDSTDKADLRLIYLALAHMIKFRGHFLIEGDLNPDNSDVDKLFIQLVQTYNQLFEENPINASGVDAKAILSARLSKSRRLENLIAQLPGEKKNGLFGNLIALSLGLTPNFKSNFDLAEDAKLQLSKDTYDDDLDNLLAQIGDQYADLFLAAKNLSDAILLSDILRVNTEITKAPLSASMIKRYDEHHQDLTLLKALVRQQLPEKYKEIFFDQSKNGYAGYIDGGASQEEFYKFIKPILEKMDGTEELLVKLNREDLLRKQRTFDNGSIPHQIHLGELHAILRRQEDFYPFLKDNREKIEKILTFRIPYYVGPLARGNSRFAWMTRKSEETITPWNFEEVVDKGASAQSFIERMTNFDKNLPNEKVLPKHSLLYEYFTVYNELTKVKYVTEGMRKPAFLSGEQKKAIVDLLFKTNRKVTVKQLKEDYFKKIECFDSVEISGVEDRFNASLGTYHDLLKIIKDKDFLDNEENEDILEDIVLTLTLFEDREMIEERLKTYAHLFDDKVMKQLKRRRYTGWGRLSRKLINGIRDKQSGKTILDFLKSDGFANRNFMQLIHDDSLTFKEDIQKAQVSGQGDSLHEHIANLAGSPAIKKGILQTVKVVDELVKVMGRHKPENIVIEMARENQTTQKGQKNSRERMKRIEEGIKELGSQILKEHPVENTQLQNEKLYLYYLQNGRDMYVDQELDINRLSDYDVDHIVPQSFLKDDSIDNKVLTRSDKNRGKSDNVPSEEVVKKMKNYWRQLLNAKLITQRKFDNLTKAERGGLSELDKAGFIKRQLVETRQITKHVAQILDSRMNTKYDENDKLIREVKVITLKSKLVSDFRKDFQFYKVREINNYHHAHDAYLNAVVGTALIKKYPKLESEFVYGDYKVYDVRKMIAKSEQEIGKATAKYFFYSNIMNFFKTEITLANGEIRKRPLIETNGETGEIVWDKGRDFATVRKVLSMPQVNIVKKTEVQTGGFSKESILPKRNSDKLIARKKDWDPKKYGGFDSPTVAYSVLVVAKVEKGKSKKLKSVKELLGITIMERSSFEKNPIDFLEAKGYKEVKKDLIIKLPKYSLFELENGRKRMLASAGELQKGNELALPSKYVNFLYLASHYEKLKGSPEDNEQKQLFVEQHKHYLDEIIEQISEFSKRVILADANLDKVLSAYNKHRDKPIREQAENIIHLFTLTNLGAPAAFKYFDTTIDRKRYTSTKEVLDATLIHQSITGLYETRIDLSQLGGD

SMILES | Average Normalized Z score [1] | avg z score primary [1] | Normalized Z score 1 [1] | Normalized Z score 2 [1] | Normalized Z rep1 [2] | Z score Rep1 [2] | SpCas9 eGFP disruption Rep1 [2] | Normalized Z rep2 [2] | Z socre Rep2 [2] | SpCas9 eGFP disruption Rep2 [2] | Average Normalized Z score ([1]; average of replicates) | SpCas9 eGFP disruption Rep1 [2, 3] | Normalized Z rep1 [2, 4] | SpCas9 eGFP disruption Rep2 [2, 3] | Normalized Z rep2 [2, 4]
Cc1ccc(C(C)NC(=O)c2cccc(Oc3cc(-c4ccccc4)ncn3)c2)cc1 (stereo not shown) [Compound L663-1062] | 0.28 | 5.51 | 0.28 | 0.29 | −0.10 | −0.64 | 74.182 | −0.07 | −0.70 | 74.913 |  |  |  |  | 
CCC(C)NC(=O)c1cccc(Oc2cc(-c3ccccc3)ncn2)c1 (stereo not shown) [Compound L663-0996] | 0.39 | 7.57 | 0.43 | 0.35 | −0.03 | −0.21 | 75.44 | −0.37 | −3.54 | 69.294 |  |  |  |  | 
O=C(NC1CCCC1)c1cccc(Oc2cc(-c3ccccc3)ncn2)c1 [Compound L663-1002] | 0.27 | 5.18 | 0.22 | 0.31 | −0.26 | −1.70 | 71.095 | 0.01 | 0.05 | 76.396 |  |  |  |  | 
Cc1[nH]nc2ccc(-c3cncc(OCC(N)Cc4ccccc4)c3)cc12 (stereo not shown) [Compound S2670] |  | 3.67 | 0.17 | 0.21 | −3.44 | −22.46 | 10.416 | −3.50 | −33.58 | 9.7985 | 0.19 |  |  |  | 
CCc1cccc(-n2nnnc2N2CCN(C(=O)Nc3ccc(C)cc3Cl)CC2)c1 [Compound L378-0331] | 0.19 | 5.44 | 0.16 | 0.21 | −0.41 | −2.70 | 68.157 | 0.06 | 0.61 | 77.513 |  |  |  |  | 
Cc1ccc(-c2nc(CN3CCCC(C(=O)Nc4cc(C)ccc4O)C3)no2)cc1 (stereo not shown) [Compound J065-2258] | 0.12 | 5.05 | 0.10 | 0.14 | −0.12 | −1.25 | 73.517 | −0.06 | −1.43 | 74.702 |  |  |  |  | 
O=C(Nc1nc(-c2ccccc2)c(C(=O)c2ccccc2)s1)c1ccc2c(c1)OCCO2 [Compound G786-0335] | 0.04 | 4.14 | 0.04 | 0.04 | −0.08 | −0.79 | 74.347 | 0.09 | 2.13 | 77.667 |  |  |  |  | 
O=C(NCc1ccc(F)cc1)c1ccc(Oc2ccnc(-c3cccc(F)c3)n2)cc1 [Compound L662-0977] | 0.44 | 8.64 | 0.42 | 0.47 | −0.03 | −0.18 | 75.519 | −0.08 | −0.72 | 74.871 |  |  |  |  | 
CCn1c(CCC(=O)O)nc2cc(S(N)(=O)=O)ccc21 [Compound T5380152] |  | 4.58 | 0.14 | 0.11 |  | −1.27 |  |  | 4.01 |  | 0.13 | 54.565 | −0.09 | 62.745 | 0.19
Cc1ncc(-c2ccnc(Nc3ccc(S(C)(=O)=O)cc3)n2)n1C(C)C [Compound S2621] |  | 6.88 | 0.43 | 0.26 | −1.68 | −10.98 | 43.978 | −1.71 | −16.40 | 43.815 | 0.35 |  |  |  | 
CNS(=O)(=O)c1ccc2nc(NC(=O)c3ccc(N4C(=O)CCC4=O)cc3)sc2c1 [Compound G786-1562] | 0.06 | 6.00 | 0.05 | 0.07 | −0.26 | −2.41 | 57.872 | −0.25 | −3.72 | 60.132 |  |  |  |  | 
C=Cc1ccc(CSC2=NS(=O)(=O)c3ccccc3N2)cc1 [Compound K261-1443] | 0.16 | 4.25 | 0.15 | 0.17 | −0.17 | −1.74 | 72.619 | −0.19 | −4.27 | 72.337 |  |  |  |  | 
CCn1c(=O)c(C(=O)Nc2nccc(C)n2)c(O)c2ccccc21 [Compound G650-0193] | 0.21 | 11.65 | 0.19 | 0.23 | −0.05 | −0.45 | 63.431 | −0.43 | −6.43 | 55.676 |  |  |  |  | 
O=C(NC1CCCCC1)c1cccc(Oc2cc(-c3ccccc3)ncn2)c1 [Compound L663-0999] | 0.40 | 7.77 | 0.44 | 0.36 |  | 0.55 |  |  | −1.03 |  |  | 77.659 | 0.08 | 74.256 | −0.11
Cc1c(P(=S)(N2CCOCC2)N2CCOCC2)cc(C#N)n1C [Compound T0503-9777] |  | 4.67 | 0.06 | 0.06 |  | 1.11 |  |  | 1.28 |  | 0.06 | 60.694 | 0.08 | 57.686 | 0.06
COc1ccc(C2CNC(=O)C2)cc1OC1CCCC1 (stereo not shown) [Compound S2127] |  | 3.63 | 0.17 | 0.17 | −0.11 | −0.74 | 73.9 | −0.28 | −2.66 | 71.027 | 0.17 |  |  |  | 
